Experimental data as given in patent publication US8288375B2, “Fungicidal bicyclic pyrazoles” (E.I. du Pont de Nemours and Company, priority 2007, dated 2012).

Experiments:
Format in all cases: in vivo
[1] = test system: Erysiphe graminis f. sp. tritici; assay: Test A: wheat powdery mildew, test suspension sprayed on wheat seedlings, disease rating; details: 200 ppm test suspension; 100 = 100% disease control, 0 = no control
[2] = test system: Puccinia recondite f sp. tritici; assay: Test B: wheat leaf rust, test suspension sprayed on wheat seedlings, disease rating; details: 200 ppm test suspension;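 further: 200 ppm unless marked * meaning 40 ppm or ** meaning 10 ppm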
Fusarium graminearum = assay: whole plant or invertebrate; details: 200 ppm test suspension
Septoria nodorum = assay: Test D: wheat glume blotch, test suspension sprayed on wheat seedlings, disease rating; details: 200 ppm test suspension
Septoria tritici = assay: Test E: wheat leaf blotch, test suspension sprayed on wheat seedlings, disease rating; details: 200 ppm test suspension;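 further: 200 ppm unless marked * meaning 40 ppm or ** meaning 10 ppm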
Phytophthora infestans = assay: whole plant or invertebrate; details: 200 ppm test suspension
Pythium aphanidermatum = assay: Test L: bluegrass pythium blight, test suspension sprayed on bluegrass seedlings, disease rating; details: 200 ppm test suspension;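 further: 200 ppm unless marked * meaning 40 ppm or ** meaning 10 ppm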

C[Si](C)(C)CNc1nccc(-c2c(-c3ccc(F)cc3)nn3c2CCCC3)n1 [compound 35]
Test A disease control rating [1]: 0%
Test B disease control rating [2]: 99%
Test C disease control rating (Fusarium graminearum): 99%
Test D disease control rating (Septoria nodorum): 99%
Test E disease control rating (Septoria tritici): 100%
Test J disease control rating (Phytophthora infestans): 67%
Test L disease control rating (Pythium aphanidermatum): 0%

CC(=O)OCC(C)Nc1nccc(-c2c(-c3ccc(F)cc3)nn3c2CCCC3)n1 (stereo not shown) [compound 67]
Test A disease control rating [1]: 0%
Test B disease control rating [2]: 100%
Test C disease control rating (Fusarium graminearum): 100%
Test D disease control rating (Septoria nodorum): 78%
Test E disease control rating (Septoria tritici): 93%
Test J disease control rating (Phytophthora infestans): 99%
Test L disease control rating (Pythium aphanidermatum): 100%

Cc1ccccc1-c1nn2c(c1-c1ccnc(NC(C)C)n1)CCCC2 [compound 45]
Test A disease control rating [1]: 41%
Test B disease control rating [2]: 89%
Test C disease control rating (Fusarium graminearum): 0%
Test D disease control rating (Septoria nodorum): 60%
Test E disease control rating (Septoria tritici): 97%
Test J disease control rating (Phytophthora infestans): 76%
Test L disease control rating (Pythium aphanidermatum): 85%

Fc1ccc(-c2nn3c(c2-c2ccnc(Nc4ccc(OC(F)(F)F)cc4)n2)CCCC3)cc1 [compound 60]
Test A disease control rating [1]: 0%
Test B disease control rating [2]: 74%
Test C disease control rating (Fusarium graminearum): 91%
Test D disease control rating (Septoria nodorum): 64%
Test E disease control rating (Septoria tritici): 71%
Test J disease control rating (Phytophthora infestans): 9%
Test L disease control rating (Pythium aphanidermatum): 0%

CC(C)CNc1nccc(-c2c(-c3ccccc3F)nn3c2CCC3)n1 [compound 98]
Test A disease control rating [1]: 0%
Test B disease control rating [2]: 74%
Test C disease control rating (Fusarium graminearum): 97%
Test D disease control rating (Septoria nodorum): 82%
Test E disease control rating (Septoria tritici): 95%
Test J disease control rating (Phytophthora infestans): 88%
Test L disease control rating (Pythium aphanidermatum): 99%

Fc1ccccc1-c1nn2c(c1-c1ccnc(NC3CC3)n1)CCC2 [compound 99]
Test A disease control rating [1]: 0%
Test B disease control rating [2]: 94%
Test C disease control rating (Fusarium graminearum): 99%
Test D disease control rating (Septoria nodorum): 89%
Test E disease control rating (Septoria tritici): 98%
Test J disease control rating (Phytophthora infestans): 99%
Test L disease control rating (Pythium aphanidermatum): 100%

CC(CO)Nc1nccc(-c2c(-c3ccsc3)nn3c2CCCC3)n1 (stereo not shown) [compound 42]
Test A disease control rating [1]: 0%
Test B disease control rating [2]: 85%
Test C disease control rating (Fusarium graminearum): 66%
Test D disease control rating (Septoria nodorum): 0%
Test E disease control rating (Septoria tritici): 59%
Test J disease control rating (Phytophthora infestans): 99%
Test L disease control rating (Pythium aphanidermatum): 100%

OC1(CNc2nccc(-c3c(-c4ccc(F)cc4)nn4c3CCCC4)n2)CC1 [compound 44]
Test A disease control rating [1]: 91%
Test B disease control rating [2]: 85%
Test C disease control rating (Fusarium graminearum): 99%
Test D disease control rating (Septoria nodorum): 89%
Test E disease control rating (Septoria tritici): 100%
Test J disease control rating (Phytophthora infestans): 65%
Test L disease control rating (Pythium aphanidermatum): 0%

Fc1ccc(-c2nn3c(c2-c2ccnc(NCc4cccs4)n2)CCCC3)cc1 [compound 39]
Test A disease control rating [1]: 0%
Test B disease control rating [2]: 67%
Test C disease control rating (Fusarium graminearum): 60%
Test D disease control rating (Septoria nodorum): 60%
Test E disease control rating (Septoria tritici): 88%
Test J disease control rating (Phytophthora infestans): 0%
Test L disease control rating (Pythium aphanidermatum): 0%

CC(CO)Nc1nccc(-c2c(-c3ccccc3)nn3c2COCC3)n1 (stereo not shown) [compound 122]
Test A disease control rating [1]: 0%
Test B disease control rating [2]: 96%
Test C disease control rating (Fusarium graminearum): 99%
Test D disease control rating (Septoria nodorum): 73%
Test E disease control rating (Septoria tritici): 80%
Test J disease control rating (Phytophthora infestans): 99%
Test L disease control rating (Pythium aphanidermatum): 100%

C[C@H](CO)Nc1nccc(-c2c(-c3ccc(F)cc3)nn3c2CCCC3)n1 [compound 47]
Test A disease control rating [1]: 0%
Test B disease control rating [2]: 91%
Test C disease control rating (Fusarium graminearum): 69%
Test D disease control rating (Septoria nodorum): 0%
Test E disease control rating (Septoria tritici): 94%
Test J disease control rating (Phytophthora infestans): 99%
Test L disease control rating (Pythium aphanidermatum): 100%

c1cc(-c2c(-c3ccsc3)nn3c2CCCC3)nc(NC2CC2)n1 [compound 61]
Test A disease control rating [1]: 79%
Test B disease control rating [2]: 94%
Test C disease control rating (Fusarium graminearum): 98%
Test D disease control rating (Septoria nodorum): 99%
Test E disease control rating (Septoria tritici): 98%
Test J disease control rating (Phytophthora infestans): 97%
Test L disease control rating (Pythium aphanidermatum): 99%

Fc1cc(F)cc(-c2nn3c(c2-c2ccnc(NC4CC4)n2)CCC3)c1 [compound 104]
Test A disease control rating [1]: 0%
Test B disease control rating [2]: 0%
Test C disease control rating (Fusarium graminearum): 55%
Test D disease control rating (Septoria nodorum): 0%
Test E disease control rating (Septoria tritici): 88%
Test J disease control rating (Phytophthora infestans): 88%
Test L disease control rating (Pythium aphanidermatum): 91%

Cc1cc(-c2nn3c(c2-c2ccnc(NC(C)CO)n2)COCC3)ccc1F (stereo not shown) [compound 123]
Test A disease control rating [1]: 0%
Test B disease control rating [2]: 90%
Test C disease control rating (Fusarium graminearum): 99%
Test D disease control rating (Septoria nodorum): 0%
Test E disease control rating (Septoria tritici): 31%
Test J disease control rating (Phytophthora infestans): 91%
Test L disease control rating (Pythium aphanidermatum): 100%

CC(C)Nc1nccc(-c2c(-c3ccsc3)nn3c2COCC3)n1 [compound 118]
Test A disease control rating [1]: 0%
Test B disease control rating [2]: 86%
Test C disease control rating (Fusarium graminearum): 98%
Test D disease control rating (Septoria nodorum): 78%
Test E disease control rating (Septoria tritici): 82%
Test J disease control rating (Phytophthora infestans): 80%
Test L disease control rating (Pythium aphanidermatum): 99%

CC(CO)Nc1nccc(-c2c(-c3ccc(F)cc3)nn3c2CSCC3)n1 (stereo not shown) [compound 111]
Test A disease control rating [1]: 21%
Test B disease control rating [2]: 95%
Test C disease control rating (Fusarium graminearum): 95%
Test D disease control rating (Septoria nodorum): 64%
Test E disease control rating (Septoria tritici): 31%
Test J disease control rating (Phytophthora infestans): 80%
Test L disease control rating (Pythium aphanidermatum): 100%

Fc1ccc(Nc2nccc(-c3c(-c4ccc(F)cc4)nn4c3CCCC4)n2)cc1 [compound 40]
Test A disease control rating [1]: 0%
Test B disease control rating [2]: 85%
Test C disease control rating (Fusarium graminearum): 84%
Test D disease control rating (Septoria nodorum): 99%
Test E disease control rating (Septoria tritici): 98%
Test J disease control rating (Phytophthora infestans): 0%
Test L disease control rating (Pythium aphanidermatum): 0%

CC(COC(=O)c1cccnc1)Nc1nccc(-c2c(-c3ccc(F)cc3)nn3c2CCCC3)n1 (stereo not shown) [compound 68]
Test A disease control rating [1]: 0%
Test B disease control rating [2]: 98%
Test C disease control rating (Fusarium graminearum): 99%
Test D disease control rating (Septoria nodorum): 95%
Test E disease control rating (Septoria tritici): 93%
Test J disease control rating (Phytophthora infestans): 95%
Test L disease control rating (Pythium aphanidermatum): 100%

Cc1cc(-c2nn3c(c2-c2ccnc(NC4CC4)n2)COCC3)ccc1F [compound 119]
Test A disease control rating [1]: 61%
Test B disease control rating [2]: 76%
Test C disease control rating (Fusarium graminearum): 100%
Test D disease control rating (Septoria nodorum): 99%
Test E disease control rating (Septoria tritici): 87%
Test J disease control rating (Phytophthora infestans): 93%
Test L disease control rating (Pythium aphanidermatum): 92%

Fc1ccc(-c2nn3c(c2-c2ccnc(Oc4ccc(-n5cccc5)cc4)n2)CCCC3)cc1 [Compound 106]
Test A disease control rating [1]: 0%
Test B disease control rating [2]: 94%
Test C disease control rating (Fusarium graminearum): 92%
Test D disease control rating (Septoria nodorum): 69%
Test E disease control rating (Septoria tritici): 72%
Test J disease control rating (Phytophthora infestans): 9%
Test L disease control rating (Pythium aphanidermatum): 0%

CC(C)CNc1nccc(-c2c(-c3ccc(F)cc3)nn3c2CCCC3)n1 [compound 29]
Test A disease control rating [1]: 0%
Test B disease control rating [2]: 95%
Test C disease control rating (Fusarium graminearum): 100%
Test D disease control rating (Septoria nodorum): 98%
Test E disease control rating (Septoria tritici): 85%
Test J disease control rating (Phytophthora infestans): 47%
Test L disease control rating (Pythium aphanidermatum): 0%

CONc1nccc(-c2c(-c3ccc(F)cc3)nn3c2CCCC3)n1 [compound 65]
Test A disease control rating [1]: 28%
Test B disease control rating [2]: 65%
Test C disease control rating (Fusarium graminearum): 87%
Test D disease control rating (Septoria nodorum): 31%
Test E disease control rating (Septoria tritici): 98%
Test J disease control rating (Phytophthora infestans): 43%
Test L disease control rating (Pythium aphanidermatum): 99%
